Experimental data published in publication PMC10531311, “Anti-Inflammatory Activities of 8-Benzylaminoxanthines Showing High Adenosine A2A and Dual A1/A2A Receptor Affinity” (International Journal of Molecular Sciences, 2023).
“Also recorded” adds a separate entry of the source.

Key:
[1] = tested on: BV-2 cells; assay: Phagocytic activity, IncuCyte pHrodo; assay type: cell-based; details: 1 µM; BV-2, LPS 1 μg/mL; apoptotic Jurkat target cells
Experimental: For the evaluation of phagocytic activity, compound 22 (MZ1490) was chosen as the most promising one on the basis of the results from the Griess assay. This compound was tested at a concentration of 1 µM, and phagocytosis was monitored in real time using an IncuCyte® pHrodo® Red Cell Labeling Kit (catalog no. 4766, Sartorius, Göttingen, Germany). […] It is interesting to note that the phagocytic activity exerted by untreated BV-2 cells is also related to the serum concentration. A healthy CNS maintains the BBB, and microglia are often highly ramified surveillance microglia without enhanced phagocytosis. […]
Phagocytosis was monitored in real time using the IncuCyte® pHrodo® Red Cell Labeling Kit. The principle of this test is based on the ability of the pHrodo to emit fluorescence in an acidic environment, which is precisely the environment inside the phagosome. If effector cells engulf labeled target cells and these enter the acidic phagosome, a substantial increase in fluorescence is observed. In this way, we can quantify phagocytosis. […] After this time, the labeled Jurkat apoptotic cells were added to the BV-2 cells at a density of 100,000 cells/well and the cells were monitored in an IncuCyte Live-Cell Analysis System. Repeat scanning to record phase and fluorescence images was carried out every 1 h, for up to 22 h. […]

[2] = molecular target: T1, CYP2D6 (Homo sapiens, UniProt P10635); assay: Drug-drug interactions, CYP2D6 P450-Glo; assay type: in vitro ADME; details: 10 µM
T1 construct: purchased Promega (Madison, WI, USA)
T1 sequence (P10635 whole entry): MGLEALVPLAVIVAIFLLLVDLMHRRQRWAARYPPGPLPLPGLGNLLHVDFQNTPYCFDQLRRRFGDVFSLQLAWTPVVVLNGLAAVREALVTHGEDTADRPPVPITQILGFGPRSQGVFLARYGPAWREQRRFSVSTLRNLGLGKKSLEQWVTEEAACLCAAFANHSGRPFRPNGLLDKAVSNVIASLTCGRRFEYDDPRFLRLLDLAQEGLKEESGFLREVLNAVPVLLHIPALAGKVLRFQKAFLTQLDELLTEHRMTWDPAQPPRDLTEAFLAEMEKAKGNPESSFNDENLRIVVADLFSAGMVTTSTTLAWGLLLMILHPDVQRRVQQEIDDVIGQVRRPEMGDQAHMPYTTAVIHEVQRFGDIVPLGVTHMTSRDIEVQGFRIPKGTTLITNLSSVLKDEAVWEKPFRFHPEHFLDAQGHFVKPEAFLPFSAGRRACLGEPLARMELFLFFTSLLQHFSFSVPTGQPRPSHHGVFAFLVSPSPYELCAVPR
Experimental: To predict potential drug-drug interactions (DDI) effects on three of the most relevant cytochrome P450 (CYP), isoforms CYP3A4, CYP2D6 and CYP2C9 were investigated at a concentration of 10 µM. The results were compared with the effects of 1 µM of the selective inhibitors ketoconazole (CYP3A4), quinidine (CYP2D6) and sulfaphenazole (CYP2C9).
The influence of the tested compounds on recombinant human cytochromes was determined with the use of CYP3A4, CYP2D6 and CYP2C9 P450-Glo™ kits and protocols provided by Promega (Madison, WI, USA). Compounds were tested at a concentration of 10 μM. Reference inhibitors: Ketoconazole (CYP3A4), quinidine (CYP2D6) and sulfaphenazole (CYP2C9) were tested at 1 μM. The luminescent signals were measured using a microplate reader EnSpire PerkinElmer (Waltham, MA, USA).

| SMILES | effect on phagocytosis (in words) [1] | effect on CYP2D6 activity (in words) [2] |
| --- | --- | --- |
| C#CCn1c(=O)c2c(nc(NCc3c(F)cccc3Cl)n2C)n(C)c1=O [compound 22, 8-((2-Chloro-6-fluorobenzyl)amino)-3,7-dimethyl-1-(prop-2-yn-1-yl)-3,7-dihydro-1H-purine-2,6-dione] | protects microglia from LPS-induced inflammation and, therefore, also from phagocytosis; also recorded: protected from phagocytosis | – |
| C#CCn1c(=O)c2c(nc(NCc3cccc(Br)c3)n2C)n(C)c1=O [compound 24, 8-((3-Bromobenzyl)amino)-3,7-dimethyl-1-(prop-2-yn-1-yl)-3,7-dihydro-1H-purine-2,6-dione] | – | slight, statistically significant inhibition |
